The values that follow are results of earlier work, collected in patent US20170015852A1, “INK COMPOSITION” (KERACOL LIMITED, priority 2014, published 2017).

For one series, the system named is human health. The note with it: toxicological reports; approved food colorants E100, E120, E163.
In the next series the test system is rats. The conditions noted are these: high doses.

With `Cc1c(C(=O)O)c(O)cc2c1C(=O)c1c(O)c([C@@H]3O[C@H](CO)[C@@H](O)[C@H](O)[C@H]3O)c(O)c(O)c1C2=O` [carminic acid], the “threat to human health” value in the series on human health was “pose no threat to human health”. As for `O=C1OC2(c3ccccc31)c1cc(I)c(O)c(I)c1Oc1c2cc(I)c(O)c1I` [erythrosine], the solubility in ethanol is recorded as 0.79 % w/v. Besides, in the series on rats, the carcinogenicity entry is on record as “cause cancer”.
